Like-named read-outs stand apart in the source and are kept apart here.
System: SJSA-1
Assay: Protocol B: SJSA-1 CellTiter-Glo cell viability
[1] = Homo sapiens, SJSA-1, 72 h, read-out: SJSA1 IC50 (μM) (Protocol B), SJSA-1, Protocol B (CellTiter-Glo), 72 hrs
[2] = read-out: SJSA1 IC50 (μM) (Protocol B), SJSA-1, Protocol B (CellTiter-Glo), 72 hrs
[3] = read-out: SJSA1 IC50 (Protocol B), SJSA-1 cells, CellTiter-Glo, 72 hrs
[4] = Homo sapiens, SJSA-1, 72 h, read-out: SJSA1 IC50 (Protocol B), SJSA-1 cells, CellTiter-Glo, 72 hrs

`CCC(O)(c1cc(F)c2c(c1)C(=O)N(Cc1ccc(Cl)cn1)[C@@]2(OC[C@@H](C)O)c1ccc(Cl)cc1)C1(F)CCNCC1` (single isomer, unassigned) [Example 549] was tested. Which IC50 [1] did it give?
The IC50 was 0.27 µM.

For `CCC(O)(c1cc(F)c2c(c1)C(=O)N(Cc1ncc(C#N)cn1)[C@@]2(OCC1(F)COC1)c1ccc(Cl)cc1)c1cn(C)cn1` (single isomer, unassigned) [Example 470], which IC50 [2] is on record?
Its IC50 is 0.1 µM.

How did the IC50 [3] turn out when `CO[C@]1(c2ccc(Cl)cc2)c2c(F)cc(C(C)(O)C3CN(C(C)=O)C3)cc2C(=O)N1Cc1ccc(Cl)cn1` (single isomer, unassigned) [Example 389] was run?
The IC50 was 4.2 µM.

With `CC[C@@](O)(c1cc(F)c2c(c1)C(=O)N(Cc1ncc(C#N)cn1)[C@@]2(O[C@H]1C[C@@H](O)C1)c1ccc(Cl)cc1)C1(F)CCOCC1` [Example 505, 2-{[(1R)-1-(4-chlorophenyl)-7-fluoro-5-[(1R)-1-(4-fluorooxan-4-yl)-1-hydroxypropyl]-3-oxo-1-[cis-3-hydroxycyclobutoxy]-2,3-dihydro-1H-isoindol-2-yl]methyl}pyrimidine-5-carbonitrile] as the molecule, how does the IC50 [1] read?
Its IC50 is 0.027 µM.

With `CC(O)(c1cc(F)c2c(c1)C(=O)N(Cc1ccc(C#N)cn1)[C@@]2(OCC1(C#N)CC1)c1ccc(Cl)cc1)C1CCOCC1` (single isomer, unassigned) [Example 282] as the molecule, how does the IC50 [4] read?
The IC50 was 0.061 µM.

`Cc1nnc(C(C)(O)c2cc(F)c3c(c2)C(=O)N(Cc2ccc(Cl)cn2)[C@@]3(OCC2(O)CC2)c2ccc(Cl)cc2)o1` (stereo partly drawn) [Example 185, (3R)-3-(4-Chlorophenyl)-2-[(5-chloropyridin-2-yl)methyl]-4-fluoro-6-[1-hydroxy-1-(5-methyl-1,3,4-oxadiazol-2-yl)ethyl]-3-[(1-hydroxycyclopropyl)methoxy]-2,3-dihydro-1H-isoindol-1-one] was tested. Which IC50 [3] did it give?
The IC50 was 2.2 µM.

`CC(O)(c1cc(F)c2c(c1)C(=O)N(Cc1ncc(Cl)cn1)[C@@]2(OCC1(CO)CC1)c1ccc(Cl)cc1)[C@H]1CC[C@H](O)CC1` (single isomer, unassigned) [Example 401] was tested. Which IC50 [2] did it give?
Its IC50 is 0.0098 µM.

How did the IC50 [1] turn out when `CC[C@](O)(c1cc(F)c2c(c1)C(=O)N(Cc1ncc(C#N)cn1)[C@@]2(O[C@H]1C[C@@H](O)C1)c1ccc(Cl)cc1)C1(F)CCOCC1` [Example 506, 2-{[(1R)-1-(4-chlorophenyl)-7-fluoro-5-[(1S)-1-(4-fluorooxan-4-yl)-1-hydroxypropyl]-3-oxo-1-[cis-3-hydroxycyclobutoxy]-2,3-dihydro-1H-isoindol-2-yl]methyl}pyrimidine-5-carbonitrile] was run?
Its IC50 is 3.4 µM.

Which IC50 [4] does the source give for `CO[C@]1(c2ccc(Cl)cc2)c2c(F)cc(C(C)(O)C3CN(C(=O)CO)C3)cc2C(=O)N1Cc1ccc(Cl)cn1` (single isomer, unassigned) [Example 391] here?
Its IC50 is 0.66 µM.

Which IC50 [4] does the source give for `CN1CCN(CC(C)(O)c2cc(F)c3c(c2)C(=O)N(Cc2ccc(C#N)cn2)[C@@]3(OCC2(C#N)CC2)c2ccc(Cl)cc2)CC1` (stereo partly drawn) [Example 279, 6-{[(1R)-1-(4-chlorophenyl)-1-[(1-cyanocyclopropyl)methoxy]-7-fluoro-5-[2-hydroxy-1-(4-methylpiperazin-1-yl)propan-2-yl]-3-oxo-2,3-dihydro-1H-isoindol-2-yl]methyl}pyridine-3-carbonitrile] here?
Its IC50 is 0.57 µM.

How did the IC50 [4] turn out when `CC(O)(c1cc(F)c2c(c1)C(=O)N(Cc1ccc(Cl)cn1)[C@@]2(OCC1(O)CC1)c1ccc(Cl)cc1)c1ncccn1` (stereo partly drawn) [Example 396, (3R)-3-(4-chlorophenyl)-2-[(5-chloropyridin-2-yl)methyl]-4-fluoro-6-[1-hydroxy-1-(pyrimidin-2-yl)ethyl]-3-[(1-hydroxycyclopropyl)methoxy]-2,3-dihydro-1H-isoindol-1-one] was run?
The IC50 was 0.28 µM.

Which IC50 [1] does the source give for `CCCC(O)(c1cc(F)c2c(c1)C(=O)N(Cc1ccc(C#N)cn1)[C@@]2(O[C@H]1CCOC1)c1ccc(Cl)cc1)c1cn(C)cn1` (single isomer, unassigned) [Example 472] here?
The IC50 was 0.39 µM.

With `Cc1nnc(C(C)(O)c2cc(F)c3c(c2)C(=O)N(Cc2ccc(Cl)cn2)[C@@]3(OCC2(O)CC2)c2ccc(Cl)cc2)o1` (stereo partly drawn) [Example 186, (3R)-3-(4-Chlorophenyl)-2-[(5-chloropyridin-2-yl)methyl]-4-fluoro-6-[1-hydroxy-1-(5-methyl-1,3,4-oxadiazol-2-yl)ethyl]-3-[(1-hydroxycyclopropyl)methoxy]-2,3-dihydro-1H-isoindol-1-one] as the molecule, how does the IC50 [3] read?
The IC50 was 0.42 µM.

How did the IC50 [3] turn out when `CO[C@]1(c2ccc(Cl)cc2)c2c(F)cc(C(C)(O)C3CN(C(C)=O)C3)cc2C(=O)N1Cc1ccc(Cl)cn1` (single isomer, unassigned) [Example 390] was run?
Its IC50 is 0.63 µM.

With `Cn1cnc(C(C)(O)c2cc(F)c3c(c2)C(=O)N(Cc2ncc(C#N)cn2)[C@@]3(OCC2(F)COC2)c2ccc(Cl)cc2)c1` (single isomer, unassigned) [Example 468] as the molecule, how does the IC50 [1] read?
Its IC50 is 0.48 µM.

For `CCC(O)(c1cc(F)c2c(c1)C(=O)N(Cc1ncc(Cl)cn1)[C@@]2(O[C@H]1CCOC1)c1ccc(Cl)cc1)C1CCNCC1` (single isomer, unassigned) [Example 448], which IC50 [1] is on record?
Its IC50 is 0.86 µM.

How did the IC50 [3] turn out when `CO[C@]1(c2ccc(Cl)cc2)c2c(F)cc(C(C)(O)c3cn(C)c(C)n3)cc2C(=O)N1Cc1ccc(Cl)cn1` (single isomer, unassigned) [Example 161] was run?
The IC50 was 4.3 µM.

With `COc1ccc(CN2C(=O)c3cc(C(C)(O)c4cnn(C)c4)cc(F)c3[C@]2(OCC2(CO)CC2)c2ccc(Cl)cc2)cn1` (single isomer, unassigned) [Example 219] as the molecule, how does the IC50 [3] read?
Its IC50 is 0.11 µM.

Which IC50 [1] does the source give for `[2H]C([2H])(O)C1(C([2H])([2H])O[C@]2(c3ccc(Cl)cc3)c3c(F)cc(C(C)(O)C4(F)CCOCC4)cc3C(=O)N2Cc2ncc(Cl)cn2)CC1` (single isomer, unassigned) [Example 447] here?
The IC50 was 0.011 µM.

How did the IC50 [4] turn out when `CO[C@]1(c2ccc(Cl)cc2)c2c(F)cc(C(C)(O)c3cnn(CCN(C)C)c3)cc2C(=O)N1Cc1ccc(Cl)cn1` (single isomer, unassigned) [Example 191] was run?
Its IC50 is 2.5 µM.

With `[2H]C([2H])(O)C([2H])([2H])O[C@]1(c2ccc(Cl)cc2)c2c(F)cc(C(O)(CC)C3(F)CCN(C)CC3)cc2C(=O)N1Cc1ncc(Cl)cn1` (stereo partly drawn) [Example 580, (3R)-3-(4-chlorophenyl)-2-[(5-chloropyrimidin-2-yl)methyl]-4-fluoro-6-[1-(4-fluoro-1-methylpiperidin-4-yl)-1-hydroxypropyl]-3-[2-hydroxy(1,1,2,2-tetradeutero)ethoxy]-2,3-dihydro-1H-isoindol-1-one] as the molecule, how does the IC50 [1] read?
Its IC50 is 0.014 µM.

With `COc1ccc(CN2C(=O)c3cc(C(C)(O)c4cnn(C)c4)cc(F)c3[C@]2(OCC2(CO)CC2)c2ccc(Cl)cc2)nc1` (single isomer, unassigned) [Example 224] as the molecule, how does the IC50 [3] read?
The IC50 was 0.12 µM.

How did the IC50 [1] turn out when `CC[C@@](O)(c1cc(F)c2c(c1)C(=O)N(Cc1ncc(Cl)cn1)[C@@]2(O[C@H]1C[C@@H](O)C1)c1ccc(Cl)cc1)C1CCN(C)CC1` [Example 560, (3R)-3-(4-chlorophenyl)-2-[(5-chloropyrimidin-2-yl)methyl]-4-fluoro-6-[(1S)-1-hydroxy-1-(1-methylpiperidin-4-yl)propyl]-3-[cis-3-hydroxycyclobutoxy]-2,3-dihydro-1H-isoindol-1-one] was run?
The IC50 was 0.13 µM.

`CCC(O)(c1cc(F)c2c(c1)C(=O)N(Cc1ncc(C#N)cn1)[C@@]2(O[C@H]1CCOC1)c1ccc(Cl)cc1)c1ccn(C)n1` (single isomer, unassigned) [Example 490] was tested. Which IC50 [2] did it give?
The IC50 was 0.27 µM.

Reference: US10526311B2 (ASTEX THERAPEUTICS LIMITED, priority 2015, dated 2020)
